Where a name gives a salt, the structure may show the parent alone.
System: SL-induced scratching behavior in mice
Test: Inhibitory effect against sodium laurate-induced scratching behavior in mice
Type: in vivo, male ICR mice
Details: topical; for (b) average percentage of the number of scratches for 60 minutes relative to solvent control group taken as 100% / (a) mean plus/minus standard deviation of the number of scratches for 60 minutes: 10% SL 50 μL on rostral back, 90 min later 50 μL of 2.5% by mass test substance in 50% ethanol; for (a) mean plus/minus standard deviation of the number of scratches for 60 minutes: solvent control 80±2; for judgment of effectiveness as HDC activation inhibitor (antipruritic agent); effective if number of scratches is 80% or less of solvent control: 10% SL, 2.5% by mass test substance in 50% ethanol
Procedure: Test substances were evaluated for their HDC activation inhibitor (antipruritic agent) effect on the basis of their inhibitory effect on mice's scratching behavior induced by irritation with SL. The test substances used were apigenin, luteolin, sterubin, prunetin, tannic acid, chlorogenic acid, resveratrol, diphenhydramine hydrochloride, and d-chlorpheniramine maleate. Among these substances, diphenhydramine hydrochloride and d-chlorpheniramine maleate were conventionally known as antihistamic agents and served as comparative test substances.
Procedure: the test animals used were male ICR mice aged 7-8 weeks. At least 3 days before the test was conducted, the mice were shaved over a 6 cm^2 (2×3 cm) area on the rostral back.
The mice were divided into test substance group (n=3 or 4) and solvent control group (n=3). Fifty microliters of a 10% SL aqueous solution was applied to the rostral back of the mice to induce the mice's scratching behavior. Ninety minutes after the application of the SL solution, fifty microliters of a solution prepared with 50% ethanol to give a test substance concentration of 2.5% by mass was applied to the rostral back of the mice of the test substance group, and fifty microliters of 50% ethanol alone was applied to that of the solvent control group. The scratching behavior in the mice was evaluated by the following procedure.
More specifically, the mice treated as above were housed in acrylic cages (26×18×30 cm) divided into 4 sections, one mouse per section, and after the mice were acclimated for at least 30 minutes in an unattended environment, the behavior of the mice was recorded on video for 60 minutes. The recorded video was reviewed to check for the scratching behavior of the mice and visually count the number of a series of scratching behaviors which consist of an animal scratching the rostral back with a posterior leg and putting down the leg. Additionally, in the untreated group (n=4), the mice shaved on the rostral back but not treated with any of a SL solution, a test substance or 50% ethanol were evaluated for their scratching behavior by the same procedure.
According to these evaluation results, the number of scratches for 60 minutes is about 80 to 90 times in the solvent control, diphenhydramine hydrochloride, and d-chlorpheniramine maleate groups, while that number is about 40 times or less in all the test substance groups from apigenin to resveratrol. Regarding the inhibitory effect of the test substances on the number of scratches in mice, a possible criterion for judgment is that a test substance be judged to be effective as the HDC activation inhibitor (antipruritic agent) of the present invention if the number of scratches in the test substance group is 80% or less of that in the solvent control group.
In addition, with regard to FIG. 4, the values of the following two variables are listed below for each group: (a) the mean plus/minus standard deviation of the number of scratches for 60 minutes, and (b) the average value for the percentage of the number of scratches for 60 minutes in each group relative to that in the solvent control group which is taken as 100%.

| Structure (SMILES) | (b) average percentage of the number of scratches for 60 minutes relative to solvent control group taken as 100% | (a) mean plus/minus standard deviation of the number of scratches for 60 minutes | judgment of effectiveness as HDC activation inhibitor (antipruritic agent); effective if number of scratches is 80% or less of solvent control |
| --- | --- | --- | --- |
| O=c1cc(-c2ccc(O)cc2)oc2cc(O)cc(O)c12 [Apigenin, apigenin] | 40.5% | 32±5 |  |
| O=C(/C=C/c1ccc(O)c(O)c1)O[C@@H]1C[C@](O)(C(=O)O)C[C@@H](O)[C@H]1O [Chlorogenic acid, chlorogenic acid] | 50.8% | 41±8 |  |
| CN(C)CC[C@@H](c1ccc(Cl)cc1)c1ccccn1.O=C(O)/C=C\C(=O)O [D-chlorpheniramine maleate, d-chlorpheniramine maleate, reference compound] | 113.6% | 91±28 | not certain |
| CN(C)CCOC(c1ccccc1)c1ccccc1 [Diphenhydramine hydrochloride, diphenhydramine hydrochloride, reference compound] | 93.8% | 75±25 | not certain |
| O=c1cc(-c2ccc(O)c(O)c2)oc2cc(O)cc(O)c12 [Luteolin, luteolin] | 43.0% | 34±3 |  |
| COc1cc(O)c2c(=O)c(-c3ccc(O)cc3)coc2c1 [Prunetin, prunetin] | 52.7% | 42±11 |  |
| Oc1ccc(/C=C/c2cc(O)cc(O)c2)cc1 [Resveratrol, 3,5,4′-trihydroxy-trans-stilbene] | 31.7% | 25±14 |  |
| COc1cc(O)c2c(c1)O[C@H](c1ccc(O)c(O)c1)CC2=O [Sterubin, sterubin] | 44.4% | 35±14 |  |
| O=C(OC[C@H]1O[C@@H](OC(=O)c2cc(O)c(O)c(OC(=O)c3cc(O)c(O)c(O)c3)c2)[C@H](OC(=O)c2cc(O)c(O)c(OC(=O)c3cc(O)c(O)c(O)c3)c2)[C@@H](OC(=O)c2cc(O)c(O)c(OC(=O)c3cc(O)c(O)c(O)c3)c2)[C@@H]1OC(=O)c1cc(O)c(O)c(OC(=O)c2cc(O)c(O)c(O)c2)c1)c1cc(O)c(O)c(OC(=O)c2cc(O)c(O)c(O)c2)c1 [Tannic acid, tannic acid] | 53.7% | 43±22 |  |

— US20150202243A1, “HDC Activation Inhibitor, HDC Activation Inhibition Composition, Antipruritic Agent, and Antipruritic Agent Composition” (HOYU CO., LTD., priority 2012, published 2015)
